We go through 25 compounds from patent US11186564B2, “Dual NAV1.2/5HT2a inhibitors for treating CNS disorders” (Sunovion Pharmaceuticals Inc., priority 2016, dated 2021).

The target of assay [1] is T1, recombinant human serotonin receptor 5-HT2A (Homo sapiens, UniProt P28223).
T1 construct: expressed in transfected cells; method B: loaded with Ca2+ dye
The assay can be described thus: 5-HT2A antagonist Ca2+ assay in CHO-K1 cells (method A aequorin luminescence / method B FLIPR fluorescence). It counts as cell-based. The following applies: antagonist mode vs EC80 of reference agonist, method A or B, read-out: 5HT2A IC50. Put shortly:
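IC50 was obtained by nonlinear regression of percent inhibition of the EC80 agonist Ca2+ response in CHO-K1 cells stably expressing human 5-HT2A. The readout was aequorin luminescence with agonist injected 15 min after compound (A), or Ca2+-dye fluorescence on FLIPR with serotonin as agonist (B).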

The target of assay [2] is human sodium channel NaV1.2 (Homo sapiens, UniProt Q99250). In words: NaV1.2 inhibition, automated patch-clamp (Q-Patch HTX), slow inactivated state (state C). It counts as cell-based. The following applies: hNaV1.2 CHO cells, slow inactivated state; for inhibition at 1 µM: 1 μM compound, read-out: NaV1.2 (% inh), 1 μM; for IC50: read-out: NaV1.2 IC50. Put shortly:
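IC50 comes from a least-squares fit of percent inhibition, relative to vehicle, of current in the slow-inactivated state. That state is reached by a 10 s prepulse to −50 mV, then 15 ms at −90 mV, then a 5 ms test pulse to 0 mV. Human NaV1.2 in stable CHO K-1 cells, held at −100 mV, automated patch clamp.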

T1 sequence (P28223 whole entry): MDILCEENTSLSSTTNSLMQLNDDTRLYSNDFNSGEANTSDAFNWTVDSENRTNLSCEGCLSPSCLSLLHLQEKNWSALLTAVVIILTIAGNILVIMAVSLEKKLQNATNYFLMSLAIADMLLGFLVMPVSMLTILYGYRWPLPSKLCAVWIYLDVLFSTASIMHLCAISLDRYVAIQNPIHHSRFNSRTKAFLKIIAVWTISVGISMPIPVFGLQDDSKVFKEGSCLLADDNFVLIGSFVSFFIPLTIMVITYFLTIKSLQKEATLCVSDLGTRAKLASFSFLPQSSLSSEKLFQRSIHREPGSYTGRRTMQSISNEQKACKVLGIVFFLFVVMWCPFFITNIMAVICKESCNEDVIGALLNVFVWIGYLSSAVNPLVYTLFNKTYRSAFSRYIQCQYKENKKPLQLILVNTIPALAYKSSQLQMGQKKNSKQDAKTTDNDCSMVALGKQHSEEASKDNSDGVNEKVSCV
Chain of human sodium channel NaV1.2 (Q99250 whole entry): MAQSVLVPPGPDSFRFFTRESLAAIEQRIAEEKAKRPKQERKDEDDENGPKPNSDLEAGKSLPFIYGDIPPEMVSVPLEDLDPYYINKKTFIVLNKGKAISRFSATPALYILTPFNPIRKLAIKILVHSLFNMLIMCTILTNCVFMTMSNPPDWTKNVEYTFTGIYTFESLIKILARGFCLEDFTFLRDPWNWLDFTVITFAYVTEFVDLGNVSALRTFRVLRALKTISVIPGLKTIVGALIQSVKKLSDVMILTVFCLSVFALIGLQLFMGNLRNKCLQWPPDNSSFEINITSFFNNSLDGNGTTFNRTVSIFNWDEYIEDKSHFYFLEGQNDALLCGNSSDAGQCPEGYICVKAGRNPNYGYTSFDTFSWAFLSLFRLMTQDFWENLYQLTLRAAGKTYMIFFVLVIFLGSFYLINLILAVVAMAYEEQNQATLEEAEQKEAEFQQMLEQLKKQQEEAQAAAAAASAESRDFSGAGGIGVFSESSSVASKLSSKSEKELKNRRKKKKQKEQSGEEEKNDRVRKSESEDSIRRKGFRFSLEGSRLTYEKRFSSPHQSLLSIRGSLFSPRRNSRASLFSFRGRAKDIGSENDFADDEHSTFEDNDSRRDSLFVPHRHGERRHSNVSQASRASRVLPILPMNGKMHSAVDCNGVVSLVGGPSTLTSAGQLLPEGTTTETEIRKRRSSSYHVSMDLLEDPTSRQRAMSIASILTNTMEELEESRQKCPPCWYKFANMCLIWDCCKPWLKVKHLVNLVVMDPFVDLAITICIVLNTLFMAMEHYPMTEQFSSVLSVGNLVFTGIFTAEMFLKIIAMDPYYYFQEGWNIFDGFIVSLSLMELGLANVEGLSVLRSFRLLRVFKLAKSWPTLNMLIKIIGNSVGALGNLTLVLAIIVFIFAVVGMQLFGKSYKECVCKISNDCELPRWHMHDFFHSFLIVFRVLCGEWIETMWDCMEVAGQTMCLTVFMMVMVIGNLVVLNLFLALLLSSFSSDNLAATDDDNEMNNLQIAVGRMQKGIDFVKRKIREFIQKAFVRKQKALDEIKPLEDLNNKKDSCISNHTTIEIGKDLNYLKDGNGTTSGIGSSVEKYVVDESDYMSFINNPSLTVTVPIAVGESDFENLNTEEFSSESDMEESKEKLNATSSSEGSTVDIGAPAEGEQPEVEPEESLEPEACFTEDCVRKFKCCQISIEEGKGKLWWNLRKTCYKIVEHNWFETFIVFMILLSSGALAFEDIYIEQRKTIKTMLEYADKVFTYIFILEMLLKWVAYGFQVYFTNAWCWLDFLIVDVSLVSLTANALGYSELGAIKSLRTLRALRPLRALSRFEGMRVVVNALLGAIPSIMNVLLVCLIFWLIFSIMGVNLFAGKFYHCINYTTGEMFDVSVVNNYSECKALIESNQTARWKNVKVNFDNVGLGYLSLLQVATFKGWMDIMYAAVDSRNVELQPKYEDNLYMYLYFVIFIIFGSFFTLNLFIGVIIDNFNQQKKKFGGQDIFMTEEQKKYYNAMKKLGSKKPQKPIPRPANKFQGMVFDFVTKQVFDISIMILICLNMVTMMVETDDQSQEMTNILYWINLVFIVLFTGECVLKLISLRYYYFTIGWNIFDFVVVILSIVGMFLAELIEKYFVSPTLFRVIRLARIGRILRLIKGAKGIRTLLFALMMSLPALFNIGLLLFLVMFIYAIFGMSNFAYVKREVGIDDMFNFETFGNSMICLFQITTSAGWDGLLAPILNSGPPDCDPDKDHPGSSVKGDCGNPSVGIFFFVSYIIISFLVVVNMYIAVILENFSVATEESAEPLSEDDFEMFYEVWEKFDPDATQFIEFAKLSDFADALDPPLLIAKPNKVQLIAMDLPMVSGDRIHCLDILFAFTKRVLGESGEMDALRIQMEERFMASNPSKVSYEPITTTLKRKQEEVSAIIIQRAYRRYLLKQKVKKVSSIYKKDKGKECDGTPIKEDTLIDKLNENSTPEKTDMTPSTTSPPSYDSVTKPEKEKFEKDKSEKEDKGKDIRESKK

By IC50 is commonly meant the point on the concentration scale where inhibition reaches its midpoint. For `O=C1c2ccccc2CCN1CCN1C[C@@H]2C[C@H](C1)N(c1ccccc1)C2` [Example 329, 2-(2-((1S,5R)-6-phenyl-3,6-diazabicyclo[3.2.1]octan-3-yl)ethyl)-3,4-dihydroisoquinolin-1(2H)-one], the IC50 in assay [1] was more than 16700 nM. The inhibition at 1 µM in assay [2] is 36%.
Take `OC(COC1CCCCC1)CN1C[C@@H]2C[C@H](C1)N(c1ccccc1)C2` (stereo partly drawn) [Example 331, 1-(cyclohexyloxy)-3-((1S,5R)-6-phenyl-3,6-diazabicyclo[3.2.1]octan-3-yl)propan-2-ol]: the figures for the IC50 in assay [1] and in assay [2] were 1640 nM and 310 nM, respectively.
As to `COc1ccccc1N1CCC2(CCN(CC3CCc4ccccc43)C2)C1` (centres unmarked) [Example 335, 2-((2,3-dihydro-1H-inden-1-yl)methyl)-7-(2-methoxyphenyl)-2,7-diazaspiro[4.4]nonane], the IC50 came to 40 nM in assay [1] and 120 nM in assay [2].
Take `Fc1ccc(N2CCC3(CCN(CC4CCc5cccnc54)C3)C2)cc1` (centres unmarked) [Example 337, 2-((6,7-dihydro-5H-cyclopenta[b]pyridin-7-yl)methyl)-7-(4-fluorophenyl)-2,7-diazaspiro[4.4]nonane]: in assay [1], the IC50 came to 450 nM. For the same compound, the inhibition at 1 µM in assay [2] is -2%.
As for `Fc1ccc(N2CCC3(CCN(CC4Cc5cccnc5C4)C3)C2)cc1` (centres unmarked) [Example 339, 2-((6,7-dihydro-5H-cyclopenta[b]pyridin-6-yl)methyl)-7-(4-fluorophenyl)-2,7-diazaspiro[4.4]nonane], the IC50 in assay [1] came out at 870 nM; in assay [2], 2270 nM.
`Fc1ccc(N2CCC3(CCN(CC4Cc5ccccc5C4)C3)C2)cc1` (centres unmarked) [Example 340, 2-((2,3-dihydro-1H-inden-2-yl)methyl)-7-(4-fluorophenyl)-2,7-diazaspiro[4.4]nonane]: the IC50 in assay [1] was found to be 100 nM. For the same compound, the inhibition at 1 µM in assay [2] turned out to be 25%.
For the compound `OC(COC1CCCCC1)CN1CCC2(CCN(c3ccccc3)C2)C1` (centres unmarked) [Example 344, 1-(cyclohexyloxy)-3-(7-phenyl-2,7-diazaspiro[4.4]nonan-2-yl)propan-2-ol], the IC50 in assay [1] amounted to 110 nM; in assay [2], 430 nM.
In the same order, the values of `O[C@H](COC1CCCCC1)CN1CCC2(CCN(c3ccccc3)C2)C1` (stereo partly drawn) [Example 345, (2S)-1-(cyclohexyloxy)-3-(7-phenyl-2,7-diazaspiro[4.4]nonan-2-yl)propan-2-ol] are 240 nM and 1900 nM.
`O[C@@H](COC1CCCCC1)CN1CCC2(CCN(c3ccccc3)C2)C1` (stereo partly drawn) [Example 346, (2R)-1-(cyclohexyloxy)-3-(7-phenyl-2,7-diazaspiro[4.4]nonan-2-yl)propan-2-ol]: the IC50 in assay [1] was determined as 270 nM; in assay [2] it was 320 nM.
On the same counts, the results for `COc1ccccc1CN1CCC2(CCN(CC3CCc4ccccc43)C2)C1` (centres unmarked) [Example 347, 2-((2,3-dihydro-1H-inden-1-yl)methyl)-7-(2-methoxybenzyl)-2,7-diazaspiro[4.4]nonane] are 30 nM and 3190 nM.
On to `OC(COC1CCCCC1)CN1CCC2(CCN(c3ccccc3)CC2)C1` (centres unmarked) [Example 350, 1-(cyclohexyloxy)-3-(8-phenyl-2,8-diazaspiro[4.5]decan-2-yl)propan-2-ol], for which the IC50 in assay [1] came out at 610 nM; in assay [2], 1680 nM.
On the same counts, the results for `OC(COC1CCCCC1)CN1CCCC2(CCN(c3ccccc3)C2)C1` (centres unmarked) [Example 356, 1-(cyclohexyloxy)-3-(2-phenyl-2,7-diazaspiro[4.5]decan-7-yl)propan-2-ol] are 250 nM and 610 nM.
As to `C1=C(c2ccccc2)COC12CN(CC1CCc3ccccc31)C2` (centres unmarked) [Example 358, 2-((2,3-dihydro-1H-inden-1-yl)methyl)-7-phenyl-5-oxa-2-azaspiro[3.4]oct-7-ene], the concentration for half-maximal inhibition (IC50) was 870 nM in assay [1] and more than 10000 nM in assay [2].
Regarding `c1ccc(C2COC3(C2)CN(CC2CCc4ccccc42)C3)cc1` (centres unmarked) [Example 359, 2-((2,3-dihydro-1H-inden-1-yl)methyl)-7-phenyl-5-oxa-2-azaspiro[3.4]octane], in assay [1], the IC50 turned out to be 550 nM. Further, the inhibition at 1 µM in assay [2] stood at 16%.
On the same counts, the results for `O[C@H](COC1CCCCC1)CN1CC2(CC(c3ccccc3)CO2)C1` (stereo partly drawn) [Example 360, (2S)-1-(cyclohexyloxy)-3-(7-phenyl-5-oxa-2-azaspiro[3.4]octan-2-yl)propan-2-ol] are 130 nM and 4%.
In the case of `O[C@@H](COC1CCCCC1)CN1CC2(CC(c3ccccc3)CO2)C1` (stereo partly drawn) [Example 361, (2R)-1-(cyclohexyloxy)-3-(7-phenyl-5-oxa-2-azaspiro[3.4]octan-2-yl)propan-2-ol], the values for the IC50 in assay [1] and in assay [2] were 20 nM and 2710 nM, respectively.
Consider `COc1ccccc1OC1COC2(C1)CN(CC1CCc3ccccc31)C2` (centres unmarked) [Example 363, 2-((2,3-dihydro-1H-inden-1-yl)methyl)-7-(2-methoxyphenoxy)-5-oxa-2-azaspiro[3.4]octane], for which the IC50 in assay [1] came out at 620 nM. Also, the inhibition at 1 µM in assay [2] is 48%.
Regarding `Fc1ccc(OC2COC3(C2)CN(CC2CCc4ccccc42)C3)cc1` (centres unmarked) [Example 368, 2-((2,3-dihydro-1H-inden-1-yl)methyl)-7-(4-fluorophenoxy)-5-oxa-2-azaspiro[3.4]octane], the half-maximal inhibitory concentration (IC50) in assay [1] amounted to 150 nM; in assay [2], 380 nM.
Regarding `COc1ccc2c(c1)C(CN1CC3(CC(Oc4ccc(F)cc4)CO3)C1)CC2` (centres unmarked) [Example 369, 7-(4-fluorophenoxy)-2-((6-methoxy-2,3-dihydro-1H-inden-1-yl)methyl)-5-oxa-2-azaspiro[3.4]octane], the IC50 in assay [1] worked out at 290 nM. Besides, the inhibition at 10 µM in assay [2] (10 μM compound, read-out: NaV1.2 (% inh), 10 μM) turned out to be 64%.
As for `Fc1ccc(OC2COC3(C2)CN(CC2Cc4cccnc4C2)C3)cc1` (centres unmarked) [Example 370, 2-((6,7-dihydro-5H-cyclopenta[b]pyridin-6-yl)methyl)-7-(4-fluorophenoxy)-5-oxa-2-azaspiro[3.4]octane], the IC50 in assay [1] is 100 nM; in assay [2], 2010 nM.
For `COc1ccccc1OC1CCC2(CCN(CC3CCc4cccnc43)C2)C1` (centres unmarked) [Example 373, 2-((6,7-dihydro-5H-cyclopenta[b]pyridin-7-yl)methyl)-7-(2-methoxyphenoxy)-2-azaspiro[4.4]nonane], the half-maximal inhibitory concentration (IC50) came out at 440 nM in assay [1] and 2420 nM in assay [2].
`OC1(c2ccccc2)COC2(CCN(CC3CCc4ccccc43)CC2)C1` (centres unmarked) [Example 374, 8-((2,3-dihydro-1H-inden-1-yl)methyl)-3-phenyl-1-oxa-8-azaspiro[4.5]decan-3-ol]: the IC50 in assay [1] amounted to 250 nM. Further, the inhibition at 1 µM in assay [2] came out at 9%.
Consider `c1ccc2c(c1)CCC1(CN(CC3CCc4ccccc43)C1)O2` (centres unmarked) [Example 385, 1-((2,3-dihydro-1H-inden-1-yl)methyl)spiro[azetidine-3,2′-chromane]], for which, in assay [1], the IC50 worked out at 540 nM. The inhibition at 1 µM in assay [2] stood at 16%.
On the same counts, the results for `c1ccc2c(c1)CCC1(CCN(CC3CCc4ccccc43)C1)O2` (centres unmarked) [Example 387, 1′-((2,3-dihydro-1H-inden-1-yl)methyl)spiro[chromane-2,3′-pyrrolidine]] are 30 nM and 29%.
For the compound `O=C1CC2(CCN(CC3CCc4ccccc43)C2)Oc2ccccc21` (centres unmarked) [Example 388, 1′-((2,3-dihydro-1H-inden-1-yl)methyl)spiro[chromane-2,3′-pyrrolidin]-4-one], the IC50 in assay [1] worked out at 220 nM; in assay [2] it was 1750 nM.
